These are literature values, as cited in US7429482B2, “Screening tools for discovery of novel anabolic agents” (United States of America as represented by the Department …, priority 2005, dated 2008).

The data set has as its target GR. To be noted: Danhaive and Rousseau 1986; cited from earlier work.

As a reminder, the Kd is the constant that tells how readily two partners part at equilibrium. For the compound `C[C@]12CC[C@H]3[C@@H](CCC4=CC(=O)CC[C@@]43C)[C@@H]1CC[C@@H]2O` [testosterone], the Kd is about 200 nM.
